Measured values from publication PMC3326647, “Single Enantiomer of YK-4-279 Demonstrates Specificity in Targeting the Oncogene EWS-FLI1” (Oncotarget, 2012).
Read-outs that look alike come from different tables or passages of the source.

Columns and labels:
Format in all cases: cell-based
[1] = target: T1, EWS-FLI1/RHA interaction in TC32 cells (Homo sapiens, UniProt Q01543+Q01844); assay: Co-immunoprecipitation of EWS-FLI1 and RHA from treated TC32 cells, western blot densitometry; settings: 15 hours; for RHA coimmunoprecipitated with EWS-FLI1: 10μM; for IC50: 0.3 to 10μM, read-out: IC50, densitometry of RHA relative to FLI1
T1 construct: FLI1 C-terminal portion (fusion partner, Q01543); endogenous in cells; host or cells: TC32
T1 sequence (Q01844+Q01543 with tags, fused parts or gaps): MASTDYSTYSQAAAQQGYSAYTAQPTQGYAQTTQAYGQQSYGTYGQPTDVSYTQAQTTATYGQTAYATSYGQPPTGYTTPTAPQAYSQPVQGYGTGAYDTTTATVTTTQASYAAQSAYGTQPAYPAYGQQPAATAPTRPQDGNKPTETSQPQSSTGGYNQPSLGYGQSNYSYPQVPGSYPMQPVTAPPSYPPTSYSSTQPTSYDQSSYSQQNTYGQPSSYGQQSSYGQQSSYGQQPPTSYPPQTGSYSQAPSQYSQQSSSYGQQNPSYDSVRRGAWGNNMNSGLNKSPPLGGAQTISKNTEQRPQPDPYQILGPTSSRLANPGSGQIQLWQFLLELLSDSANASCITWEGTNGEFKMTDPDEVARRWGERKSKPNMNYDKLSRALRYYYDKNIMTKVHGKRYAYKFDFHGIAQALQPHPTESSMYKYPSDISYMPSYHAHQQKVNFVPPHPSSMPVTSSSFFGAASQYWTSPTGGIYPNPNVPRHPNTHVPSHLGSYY
Method: TC32 were grown to ~70% confluency and cells were treated for 15 hours with small molecule. Nuclear lysate was collected using the Active Motif Magnetic Co-IP Kit (Active Motif). Protein concentration was determined using bicinchoninic acid protein assay for each lysate (Pierce) and lysate was bound to 1μg of antibody overnight at 4C on a rotating axis with addition of same concentration of small molecule as used for 15 hour treatment. Magnetic beads (Active Motif) were added to the lysates and tumbled for 2 hours at 4C. Immunoprecipitated proteins were resolved using 10% PAGE and transferred to a polyvinylidene difluoride membrane (Millipore). Membranes were blocked in 5% nonfat dry milk in TTBS (20mM Tris-HCl, 150mM NaCl, 0.5% Tween 20) for 2 hours. FLI1 (Santa Cruz Biotechnologies) and RHA (Abcam) antibodies were used at 1:1000 dilutions in 5% nonfat dry milk for 2 hours. Horseradish peroxidase-linked anti-rabbit antibody (GE Healthcare) was added for 1 hour. Detection was carried out using Millipore Immobilon Western Chemiluminescent HRP Substrate per the manufacturer's instructions (Millipore Corp.). Chemiluminescence was detected using a Fujifilm LAS-3000 imaging system. Densitometry values were obtained using ImageJ software.

[2] = target: T2, EWS-FLI1 transcriptional activity (Homo sapiens, UniProt Q01543+Q01844); assay: NR0B1-luciferase reporter assay in COS7 cells transfected with EWS-FLI1; settings: for luciferase activity compared to vehicle: COS7 cells, dose of 0.3μM
T2 sequence (Q01844 1-264): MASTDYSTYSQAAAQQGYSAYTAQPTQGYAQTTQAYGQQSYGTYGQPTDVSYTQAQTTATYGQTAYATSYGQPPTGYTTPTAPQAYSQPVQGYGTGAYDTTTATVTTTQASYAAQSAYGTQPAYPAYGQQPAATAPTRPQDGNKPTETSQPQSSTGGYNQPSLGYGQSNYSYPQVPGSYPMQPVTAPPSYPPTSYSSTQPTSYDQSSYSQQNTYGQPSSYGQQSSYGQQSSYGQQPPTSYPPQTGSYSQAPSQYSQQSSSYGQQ
T2 sequence (Q01543 220-452): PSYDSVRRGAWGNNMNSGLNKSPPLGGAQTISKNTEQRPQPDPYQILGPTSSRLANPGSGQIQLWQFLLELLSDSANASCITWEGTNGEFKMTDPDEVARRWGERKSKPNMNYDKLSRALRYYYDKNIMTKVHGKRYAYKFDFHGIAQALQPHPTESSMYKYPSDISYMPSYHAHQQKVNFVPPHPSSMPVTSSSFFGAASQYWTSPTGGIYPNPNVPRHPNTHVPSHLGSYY
Method: Cells were transiently transfected with the NR0B1 luciferase reporter and full length EWS-FLI1 into COS7 cells with Fugene-6 (Roche) according to the manufacturer's protocol. Two hours after transformation, cells were treated with 0.3, 1, and 3μM of YK-4-279, (S)-YK-4-279, and (R)-YK-4-279. Luciferase activity was measured 16 hours after treatment. Protein concentration was normalized by absorbance at 280nm. All luciferase assays were performed using a luciferase assay kit according to the manufacturer's protocol (Promega).

TC32 cells = assay: Cellular proliferation (WST) assay, TC32; settings: Homo sapiens, TC-32, 72 h; TC32, ESFT (Type 1); read-out: IC50 at 3 days (+/− SEM)
Method: (§1) TC32, TC71, RDES, MMH-ES-1, STA-ET 7.2, A4573, and PC3 cells were grown in RPMI with 10% FBS and 1% HEPES. SKES cells were grown in McCoy's 5A medium with 15% FBS. MCF7, MDA-MB-231, PANC1, and ASPC1 cells were grown in colorless DMEM with 10% FBS. Cells were grown at a plating density of 5,000 – 15,000 cells/well, depending on cell line, in a 96-well plate. Small molecule or vehicle alone (DMSO) were added to cells in appropriate growth media the day after plating. After three days, viable cells were quantified using WST (Roche) according to the manufacturer's protocol. IC50 values were calculated by sigmoidal dose-response curve fit using Prism Graphpad 4.0.

TC71 cells = assay: Cellular proliferation (WST) assay, TC71; settings: for IC50: TC-71, 72 h, TC71, ESFT (Type 1), read-out: IC50 at 3 days (+/− SEM)
Method: as §1

SKES cells = assay: Cellular proliferation (WST) assay, SKES; settings: 72 h, ESFT (Type 2), read-out: IC50 at 3 days (+/− SEM)
Method: as §1

MMH-ES-1 cells = assay: Cellular proliferation (WST) assay, MMH-ES-1; settings: 72 h; MMH-ES-1, ESFT (Type 2); read-out: IC50 at 3 days (+/− SEM)
Method: as §1

A4573 cells = assay: Cellular proliferation (WST) assay, A4573; settings: 72 h; A4573, ESFT (Type 3); read-out: IC50 at 3 days (+/− SEM)
Method: as §1

PC3 cells = assay: Cellular proliferation (WST) assay, PC3; settings: Homo sapiens, PC-3, 72 h, read-out: IC50 at 3 days (+/− SEM)
Method: as §1

MDA-MB-231 cells = assay: Cellular proliferation (WST) assay, MDA-MB-231; settings: Homo sapiens, 72 h; MDA-MB-231, breast; read-out: IC50 at 3 days (+/− SEM)
Method: as §1

PANC1 cells = assay: Cellular proliferation (WST) assay, PANC1; settings: Homo sapiens, PANC-1, 72 h; PANC1, pancreatic; read-out: IC50 at 3 days (+/− SEM)
Method: as §1

[3] = tested on: non-ESFT cell lines (PC3, MCF7, MDA-MB-231, PANC1, ASPC1); assay: Cellular proliferation (WST) assay, panel of five non-ESFT cell lines; settings: 72 h
Method: as §1

[4] = read-out: Mean IC50 at 3 days (+/− SEM), mean over five non-ESFT cell lines

Q: Which “RHA coimmunoprecipitated with EWS-FLI1” value [1] does the source give for `COc1ccc(C(=O)C[C@]2(O)C(=O)Nc3c(Cl)ccc(Cl)c32)cc1` [(R)-YK-4-279] here?
A: The value was “coimmunoprecipitation of EWS-FLI1 with RHA”.

Q: What about the “luciferase activity compared to control” value ([2]; COS7 cells, 0.3, 1 and 3μM) of the same compound?
A: Its value is “did not show significant reduction from control”.

Q: And the IC50 (TC32 cells)?
A: Its IC50 is 16300 nM.

Q: What about the IC50 (TC71 cells) of the same compound?
A: The IC50 was 20900 nM.

Q: And the IC50 (SKES cells)?
A: Its IC50 is 21000 nM.

Q: And the IC50 (MMH-ES-1 cells)?
A: Its IC50 is 26000 nM.

Q: What about the IC50 (A4573 cells) of the same compound?
A: Its IC50 is 11700 nM.

Q: What about the IC50 (PC3 cells) of the same compound?
A: The IC50 was over 30000 nM.

Q: What about the IC50 (MDA-MB-231 cells) of the same compound?
A: The IC50 was 22000 nM.

Q: What about the IC50 (PANC1 cells) of the same compound?
A: The IC50 was 24900 nM.

Q: And the IC50 [3, 4]?
A: Its IC50 is over 30000 nM.

Q: What does the source list for `COc1ccc(C(=O)C[C@@]2(O)C(=O)Nc3c(Cl)ccc(Cl)c32)cc1` [(S)-YK-4-279]?
A: RHA coimmunoprecipitated with EWS-FLI1 [1]: significant reduction in complexed RHA; IC50 [1]: 1800 nM; luciferase activity compared to vehicle [2]: significantly reduced; IC50 (TC32 cells): 280 nM; fold-difference in IC50 between the racemic and the active enantiomer (TC71 cells; TC71 cells): more than a log-fold difference; IC50 (TC71 cells): 160 nM; IC50 (SKES cells): 180 nM; IC50 (MMH-ES-1 cells): 340 nM; IC50 (A4573 cells): 230 nM; IC50 (PC3 cells): 3790 nM; IC50 (MDA-MB-231 cells): 1170 nM; IC50 (PANC1 cells): 1690 nM; IC50 [3, 4]: 6860 nM

Q: What does the source list for `COc1ccc(C(=O)CC2(O)C(=O)Nc3c(Cl)ccc(Cl)c32)cc1` (stereo not drawn) [YK-4-279]?
A: RHA coimmunoprecipitated with EWS-FLI1 [1]: significant reduction in complexed RHA; IC50 [1]: 4900 nM; luciferase activity compared to vehicle [2]: not significant; IC50 (TC32 cells): 940 nM; IC50 (TC71 cells): 1830 nM; IC50 (SKES cells): 330 nM; IC50 (MMH-ES-1 cells): 940 nM; IC50 (A4573 cells): 1460 nM; IC50 (PC3 cells): 4950 nM; IC50 (MDA-MB-231 cells): 820 nM; IC50 (PANC1 cells): 1510 nM; IC50 ([3]; read-out: Mean IC50 at 3 days (+/− SEM)): 8880 nM
